Assays:
[1] = in vivo; cited from earlier work
[2] = system: intestinal peristaltic movement induced by CRH; experiment: Intestinal peristaltic movement induced by CRH administration; assay type: in vivo, Wistar rats; conditions: diet containing 0.02% astaxanthin for four weeks; CRH intravenously
From the text: (§1) Six-week-old Wistar rats (rodents) were used to compare the intestinal bacterial flora of a group fed with a diet containing 0.02% astaxanthin (an Asx group) and the intestinal bacterial flora of a group fed with a normal diet (a control group).
(§2) Saline or corticotropin-releasing hormone (CRH) was intravenously administered to the rats after feeding each group with each corresponding diet for four weeks.
Furthermore, enhancement of intestinal peristaltic movement induced by administration of CRH was reduced in the Asx group.

[3] = Astaxanthin concentration in human blood (HPLC); assay type: in vivo; conditions: 1 to 60 mg of astaxanthin per day
Experimental: Next, an astaxanthin concentration in human blood was investigated.
In this context, a blood astaxanthin concentration means an astaxanthin concentration in blood serum or blood plasma.
A blood astaxanthin concentration was measured by HPLC.
Five hundred microliters of 50 μg/ml butylhydroxytoluene in ethanol, 100 μl of 100 ng/ml internal standard (ethyl 8′-apo-beta-caroten-8′-oate, Carote Nature, 1010) in acetone, and 500 μl of distilled water were added to 100 μl of the obtained blood serum or blood plasma sample, and the mixture was stirred vigorously for 15 seconds by a vortex mixer.
Furthermore, 5 ml of hexane was added to the blood serum or blood plasma, and subsequently the mixture was stirred vigorously for 15 seconds by the vortex mixer three times and centrifuged at 3500 rpm for 10 minutes.
Four milliliters of the supernatant after centrifugation was collected and filtrated through a membrane filter with a mesh size of 0.45 μm. […]
In parallel, a standard solution was prepared by adding 1 ml of 10 μg/ml internal standard (ethyl 8′-apo-beta-caroten-8′-oate) in acetone to 100 ml of 100 ng/ml astaxanthin (astaxanthin, ALEXIS BIOCHEMICALS, 460-031-M250) in acetone, and was also subjected to reverse-phase HPLC. The blood astaxanthin concentration was calculated based on the peak area ratio of the above-mentioned two solutions obtained by HPLC. […]

[4] = system: bacteria of the genus Akkermansia (Akkermansia muciniphila); experiment: Intestinal bacterial flora in cecum contents, 16S rRNA sequencing: Akkermansia; assay type: in vivo; conditions: diet containing 0.02% astaxanthin for four weeks vs normal diet, 6-week-old Wistar rats
From the text: Thus, as detailed below, 6-week-old Wistar rats (rodents) were used to compare the intestinal bacterial floras of a group fed with an astaxanthin-containing diet for four weeks and a group fed with a normal diet for four weeks. […] Six-week-old Wistar rats (rodents) were used to compare the intestinal bacterial flora of a group fed with a diet containing 0.02% astaxanthin (an Asx group) and the intestinal bacterial flora of a group fed with a normal diet (a control group). Saline or corticotropin-releasing hormone (CRH) was intravenously administered to the rats after feeding each group with each corresponding diet for four weeks. Three hours after administration, the rats were sacrificed and the intestinal bacterial floras in the cecum contents of each group were analyzed and compared. […] The analysis method included extracting DNA in the cecum contents, amplifying the V3-V4 region in a 16SrRNA gene, and performing sequencing.

Lactobacillus = experiment: Intestinal bacterial flora in cecum contents, 16S rRNA sequencing: Lactobacillus; assay type: in vivo, Wistar rats; conditions: diet containing 0.02% astaxanthin for four weeks, control group 10.9%
From the text: as §1, §2
(§3) Three hours after administration, the rats were sacrificed and the intestinal bacterial floras in the cecum contents of each group were analyzed and compared. The result is shown in the graph of FIG. 1.
(§4) The analysis method included extracting DNA in the cecum contents, amplifying the V3-V4 region in a 16SrRNA gene, and performing sequencing.

Clostridia = experiment: Intestinal bacterial flora in cecum contents, 16S rRNA sequencing: Clostridia; assay type: in vivo, Wistar rats; conditions: diet containing 0.02% astaxanthin for four weeks, control group 58.2%
From the text: as §1, §2, §3, §4

[5] = Change in astaxanthin concentration in human blood on long-term ingestion; assay type: in vivo; conditions: 12 mg/day astaxanthin in free form (two capsules of Haematococcus alga extract) for 42 days
Experimental: Next, a test on humans was performed to monitor how an astaxanthin concentration in blood (in blood plasma) changed when astaxanthin was ingested for a long period. A study was performed as follows:
Ten healthy Japanese males and females aged 20 years or older and younger than 50 years
The subjects ingested two capsules per day (equivalent to 12 mg/day astaxanthin in free form) together with water 30 minutes after breakfast for 42 days, with one capsule containing 60 mg of Haematococcus alga extract (equivalent to 6 mg of astaxanthin in free form) and 270 mg of edible oil and fat.
Blood collection was performed 1, 6, 13, 20, 27, 34, and 42 days after the first ingestion of the capsules to obtain blood plasma. The blood astaxanthin concentration was measured by the above-mentioned analytical method (HPLC).

Body weight of a rodent = assay type: in vivo; conditions: diet containing 0.02% astaxanthin vs normal diet; 24-day-old Wistar rats; PND72,76
From the text: Twenty four-day-old Wistar rats (rodents) were used to compare the body weights of a group fed with a diet containing 0.02% astaxanthin (an Asx group) and the body weights of a group fed with a normal diet (a control group).

Akkermansia muciniphila = conditions: articles reported so far; mice; cited from earlier work

SMILES | absorption percentage in the intestine [1] | enhancement of intestinal peristaltic movement induced by administration of CRH [2] | blood astaxanthin concentration (serum or plasma), range [3] | number of bacteria of the genus Akkermansia in the Asx group relative to the control group [4] | proportion of Lactobacillus in the intestinal bacterial flora of the Asx group (Lactobacillus) [%] | proportion of Clostridia in the intestinal bacterial flora of the Asx group (Clostridia) [%] | astaxanthin concentration in human blood plasma at plateau [5] | time after beginning of ingestion at which blood plasma concentration started to plateau [5] | increase in body weight (Body weight of a rodent) | effect on Akkermansia muciniphila population (Akkermansia muciniphila)
CC1=C(/C=C/C(C)=C/C=C/C(C)=C/C=C/C=C(C)/C=C/C=C(C)/C=C/C2=C(C)C(=O)C(O)CC2(C)C)C(C)(C)CC(O)C1=O (stereo not drawn) [astaxanthin, 3,3′-dihydroxy-β,β-carotene-4,4′-dione] | about 5% | reduced | no more than 600 ng/ml | about 11.7 times | 5.9 | 47.6 | around 200 ng/ml | about 6 days | clearly less | –
COc1cc(CNC(=O)CCCC/C=C/C(C)C)ccc1O [Capsaicin] | – | – | – | – | – | – | – | – | – | effect of increasing Akkermansia muciniphila

— patent US20210052516A1, “METHOD FOR INCREASING AKKERMANSIA IN INTESTINAL BACTERIAL FLORA BY INGESTING ASTAXANTHIN” (Fuji Chemical Industries Co., Ltd., priority 2018, published 2021)
